From ChEMBL document CHEMBL1909046, “DrugMatrix in vitro pharmacology data”
pIC50, pKi: −log10 of the molar value. Where a SMILES comes first, the peptide text is derived from it. Bridges are numbered along the chain shown (N, C = ends). [ ]: non-standard residue; d: D form. The star is where a group is joined. Ileψ(thiazoline)Cys = CC[C@H](C)[C@H](N)C1=N[C@H](C(=O)*)CS1; dOrn = NCCC[C@@H](N)C(=O)O

How the values were obtained:
[1] = molecular target: Vascular endothelial growth factor receptor 1 (Homo sapiens, UniProt P17948); format: cell-based; details: huvec; also: in other assays of this panel Not Active means under 50% inhibition at 10 µM
[2] = molecular target: D(1A) dopamine receptor (Homo sapiens, UniProt P21728); test: DRUGMATRIX: Dopamine D1 radioligand binding (ligand: [3H] SCH-23390); format: cell membranes, CHO, Membrane; details: cho; Not Active = under 50% inhibition at 10 µM
[3] = molecular target: Beta-1 adrenergic receptor (Homo sapiens, UniProt P08588); test: DRUGMATRIX: Adrenergic beta1 radioligand binding (ligand: [125I] Cyanopindolol); format: cell membranes, CHO-K1, Membrane; details: cho-k1; Not Active = under 50% inhibition at 10 µM
[4] = molecular target: Glycine receptor (Rattus norvegicus, UniProt P22771+P24524+P07727+P20781); format: cell membranes, Wistar, Spinal cord, Membrane; also: in other assays of this panel Not Active means under 50% inhibition at 10 µM
[5] = molecular target: Mitogen-activated protein kinase 1 (Homo sapiens, UniProt P28482); test: DRUGMATRIX: Protein Serine/Threonine Kinase, ERK2 enzyme inhibition (substrate: Myelin Basic Protein); design: species or system Escherichia coli; details: Not Active = under 50% inhibition at 10 µM
[6] = molecular target: T1, Calcitonin receptor (Homo sapiens, UniProt P30988); format: cell membranes, Membrane; details: t47d; also: in other assays of this panel Not Active means under 50% inhibition at 10 µM
T1 sequence (P30988 whole entry): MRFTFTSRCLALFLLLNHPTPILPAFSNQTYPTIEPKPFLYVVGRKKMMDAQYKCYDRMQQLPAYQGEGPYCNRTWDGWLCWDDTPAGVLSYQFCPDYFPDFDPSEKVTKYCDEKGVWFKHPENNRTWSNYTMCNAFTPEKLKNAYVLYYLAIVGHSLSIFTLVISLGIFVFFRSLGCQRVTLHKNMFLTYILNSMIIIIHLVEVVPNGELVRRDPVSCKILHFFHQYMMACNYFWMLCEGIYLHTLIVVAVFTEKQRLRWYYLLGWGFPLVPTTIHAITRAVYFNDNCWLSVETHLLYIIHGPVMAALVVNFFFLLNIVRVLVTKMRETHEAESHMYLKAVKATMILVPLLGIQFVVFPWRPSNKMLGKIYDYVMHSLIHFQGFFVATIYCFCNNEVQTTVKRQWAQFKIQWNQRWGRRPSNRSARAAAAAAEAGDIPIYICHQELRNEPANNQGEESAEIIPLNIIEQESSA

[7] = molecular target: T2, Progesterone receptor (Bos taurus, UniProt Q690N0); test: DRUGMATRIX: Progesterone radioligand binding (ligand: [3H] R-5020); format: tissue-based, Uterus; details: Not Active = under 50% inhibition at 10 µM
T2 sequence (Q690N0 whole entry): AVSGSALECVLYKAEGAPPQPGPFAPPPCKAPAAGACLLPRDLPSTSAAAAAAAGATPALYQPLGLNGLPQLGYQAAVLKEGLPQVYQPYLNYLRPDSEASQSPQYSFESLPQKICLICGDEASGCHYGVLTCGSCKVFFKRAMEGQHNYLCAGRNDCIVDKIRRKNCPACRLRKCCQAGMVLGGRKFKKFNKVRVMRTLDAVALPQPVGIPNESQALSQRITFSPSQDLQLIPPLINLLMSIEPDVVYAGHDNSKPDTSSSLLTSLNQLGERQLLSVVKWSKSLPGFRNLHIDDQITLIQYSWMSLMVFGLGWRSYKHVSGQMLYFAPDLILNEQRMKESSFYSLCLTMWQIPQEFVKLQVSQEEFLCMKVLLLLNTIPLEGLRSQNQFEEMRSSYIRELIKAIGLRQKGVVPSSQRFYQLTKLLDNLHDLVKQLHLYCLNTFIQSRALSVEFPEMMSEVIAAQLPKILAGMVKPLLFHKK

[8] = molecular target: T3, Endothelin-1 receptor (Homo sapiens, UniProt P25101); format: cell membranes, Membrane; details: cho-k1; also: in other assays of this panel Not Active means under 50% inhibition at 10 µM
T3 sequence (P25101 whole entry): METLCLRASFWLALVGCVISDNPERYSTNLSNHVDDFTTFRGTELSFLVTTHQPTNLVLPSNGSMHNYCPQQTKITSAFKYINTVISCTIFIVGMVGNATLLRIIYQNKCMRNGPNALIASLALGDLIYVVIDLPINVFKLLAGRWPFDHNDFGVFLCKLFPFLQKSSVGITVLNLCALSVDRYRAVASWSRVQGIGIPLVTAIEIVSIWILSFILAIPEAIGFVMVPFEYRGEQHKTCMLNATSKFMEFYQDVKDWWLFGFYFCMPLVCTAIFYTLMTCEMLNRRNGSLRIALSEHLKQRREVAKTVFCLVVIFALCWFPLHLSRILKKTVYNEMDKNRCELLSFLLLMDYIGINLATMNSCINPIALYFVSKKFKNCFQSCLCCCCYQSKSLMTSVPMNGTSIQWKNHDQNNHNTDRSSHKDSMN

[9] = molecular target: Adenosine receptor A2a (Homo sapiens, UniProt P29274); test: DRUGMATRIX: Adenosine A2A radioligand binding (ligand: […]); format: cell membranes, HEK293, Membrane; details: hek293; Not Active = under 50% inhibition at 10 µM
[10] = molecular target: T4, Muscarinic acetylcholine receptor M5 (Homo sapiens, UniProt P08912); format: cell membranes, CHO-K1, Membrane; details: cho-k1; also: in other assays of this panel Not Active means under 50% inhibition at 10 µM
T4 sequence (P08912 whole entry): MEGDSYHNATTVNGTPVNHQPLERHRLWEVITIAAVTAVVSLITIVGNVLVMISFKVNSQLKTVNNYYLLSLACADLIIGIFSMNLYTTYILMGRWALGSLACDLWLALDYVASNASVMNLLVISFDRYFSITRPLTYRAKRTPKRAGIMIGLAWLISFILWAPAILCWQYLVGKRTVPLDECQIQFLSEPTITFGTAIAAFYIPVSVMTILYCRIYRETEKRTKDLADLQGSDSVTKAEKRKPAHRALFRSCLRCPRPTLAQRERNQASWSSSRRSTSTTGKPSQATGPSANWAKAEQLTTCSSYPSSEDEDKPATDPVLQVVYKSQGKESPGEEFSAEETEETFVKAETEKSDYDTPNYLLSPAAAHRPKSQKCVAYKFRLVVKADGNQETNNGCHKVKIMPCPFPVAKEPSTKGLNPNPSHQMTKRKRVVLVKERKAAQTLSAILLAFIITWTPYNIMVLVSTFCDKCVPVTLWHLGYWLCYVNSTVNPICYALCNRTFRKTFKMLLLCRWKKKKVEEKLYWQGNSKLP

Beta-1 adrenergic receptor, sequence (P08588 whole entry): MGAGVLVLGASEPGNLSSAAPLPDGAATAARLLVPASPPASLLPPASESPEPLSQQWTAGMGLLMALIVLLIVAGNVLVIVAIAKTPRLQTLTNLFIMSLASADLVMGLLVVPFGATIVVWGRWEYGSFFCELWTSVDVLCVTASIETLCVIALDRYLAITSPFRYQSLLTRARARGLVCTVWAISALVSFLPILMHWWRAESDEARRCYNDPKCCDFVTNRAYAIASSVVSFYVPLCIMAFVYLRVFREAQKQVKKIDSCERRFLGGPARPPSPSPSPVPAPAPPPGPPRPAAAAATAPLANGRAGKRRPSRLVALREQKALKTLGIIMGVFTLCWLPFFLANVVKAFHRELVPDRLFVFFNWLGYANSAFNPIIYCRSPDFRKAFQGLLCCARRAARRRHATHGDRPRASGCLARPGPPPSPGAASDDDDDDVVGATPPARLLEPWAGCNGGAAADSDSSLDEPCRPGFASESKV
Mitogen-activated protein kinase 1, sequence (P28482 whole entry): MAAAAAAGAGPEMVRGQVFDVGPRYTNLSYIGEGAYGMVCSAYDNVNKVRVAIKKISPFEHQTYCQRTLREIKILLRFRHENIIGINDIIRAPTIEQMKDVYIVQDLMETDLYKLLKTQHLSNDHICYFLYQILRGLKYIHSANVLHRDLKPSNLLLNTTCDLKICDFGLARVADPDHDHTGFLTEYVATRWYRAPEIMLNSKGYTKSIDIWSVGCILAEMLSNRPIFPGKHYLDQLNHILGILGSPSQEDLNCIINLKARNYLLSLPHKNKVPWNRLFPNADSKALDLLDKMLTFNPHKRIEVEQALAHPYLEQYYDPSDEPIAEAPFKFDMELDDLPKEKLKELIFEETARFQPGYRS
Vascular endothelial growth factor receptor 1, sequence (P17948 whole entry): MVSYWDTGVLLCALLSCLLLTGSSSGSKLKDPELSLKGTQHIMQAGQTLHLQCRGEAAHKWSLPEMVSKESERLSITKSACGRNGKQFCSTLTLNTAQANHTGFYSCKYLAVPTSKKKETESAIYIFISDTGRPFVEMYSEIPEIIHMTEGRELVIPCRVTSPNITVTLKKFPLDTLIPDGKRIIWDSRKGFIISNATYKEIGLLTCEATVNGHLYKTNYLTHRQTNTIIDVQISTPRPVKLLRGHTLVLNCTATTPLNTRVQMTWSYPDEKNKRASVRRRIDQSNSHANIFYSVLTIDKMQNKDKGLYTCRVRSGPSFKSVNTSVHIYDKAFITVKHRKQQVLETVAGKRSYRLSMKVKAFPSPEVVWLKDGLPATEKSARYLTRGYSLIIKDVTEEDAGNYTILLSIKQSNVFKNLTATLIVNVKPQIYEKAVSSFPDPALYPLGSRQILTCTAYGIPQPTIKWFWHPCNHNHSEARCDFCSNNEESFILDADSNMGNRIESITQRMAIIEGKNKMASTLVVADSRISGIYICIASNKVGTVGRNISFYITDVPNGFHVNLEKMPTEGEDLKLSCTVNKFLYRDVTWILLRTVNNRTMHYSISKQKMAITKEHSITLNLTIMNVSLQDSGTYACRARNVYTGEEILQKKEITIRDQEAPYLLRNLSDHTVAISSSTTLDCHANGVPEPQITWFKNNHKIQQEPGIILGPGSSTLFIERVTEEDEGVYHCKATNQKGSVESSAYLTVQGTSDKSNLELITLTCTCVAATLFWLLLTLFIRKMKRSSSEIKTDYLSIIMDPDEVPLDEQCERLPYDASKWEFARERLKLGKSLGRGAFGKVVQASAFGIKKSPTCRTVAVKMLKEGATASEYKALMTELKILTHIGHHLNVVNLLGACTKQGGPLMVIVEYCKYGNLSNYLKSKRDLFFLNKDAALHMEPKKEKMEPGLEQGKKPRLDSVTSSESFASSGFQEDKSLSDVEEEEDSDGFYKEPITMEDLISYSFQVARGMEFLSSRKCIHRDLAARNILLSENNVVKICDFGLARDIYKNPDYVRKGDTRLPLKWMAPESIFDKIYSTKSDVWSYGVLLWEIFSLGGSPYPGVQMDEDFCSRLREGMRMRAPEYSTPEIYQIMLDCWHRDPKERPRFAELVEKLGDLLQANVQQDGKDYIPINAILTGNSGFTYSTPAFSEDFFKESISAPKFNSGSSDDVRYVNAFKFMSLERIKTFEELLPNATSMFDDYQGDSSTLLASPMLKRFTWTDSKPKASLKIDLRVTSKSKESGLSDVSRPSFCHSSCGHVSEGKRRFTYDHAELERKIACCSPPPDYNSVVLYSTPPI
Adenosine receptor A2a, sequence (P29274 whole entry): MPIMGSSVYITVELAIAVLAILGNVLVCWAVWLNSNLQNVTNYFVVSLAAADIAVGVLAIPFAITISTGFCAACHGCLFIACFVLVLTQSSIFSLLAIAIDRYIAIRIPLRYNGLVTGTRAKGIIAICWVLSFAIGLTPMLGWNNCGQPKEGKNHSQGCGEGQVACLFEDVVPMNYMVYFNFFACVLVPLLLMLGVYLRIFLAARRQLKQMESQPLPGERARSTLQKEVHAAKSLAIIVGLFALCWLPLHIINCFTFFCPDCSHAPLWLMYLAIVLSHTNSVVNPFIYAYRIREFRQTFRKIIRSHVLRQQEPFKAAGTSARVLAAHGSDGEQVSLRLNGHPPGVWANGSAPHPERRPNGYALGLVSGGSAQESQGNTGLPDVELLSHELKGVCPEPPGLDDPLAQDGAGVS
D(1A) dopamine receptor, sequence (P21728 whole entry): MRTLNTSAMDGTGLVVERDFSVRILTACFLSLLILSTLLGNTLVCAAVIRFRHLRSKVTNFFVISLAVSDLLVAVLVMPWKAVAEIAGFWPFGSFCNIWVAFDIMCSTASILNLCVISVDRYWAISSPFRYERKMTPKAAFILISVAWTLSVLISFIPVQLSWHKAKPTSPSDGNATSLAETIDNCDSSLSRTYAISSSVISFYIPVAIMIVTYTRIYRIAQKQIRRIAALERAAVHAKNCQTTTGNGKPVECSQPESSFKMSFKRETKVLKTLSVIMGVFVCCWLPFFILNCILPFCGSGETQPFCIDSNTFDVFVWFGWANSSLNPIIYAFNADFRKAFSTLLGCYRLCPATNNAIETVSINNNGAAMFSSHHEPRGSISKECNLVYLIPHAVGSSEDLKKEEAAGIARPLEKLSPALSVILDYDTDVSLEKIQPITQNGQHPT

SMILES	IC50 [1]	IC50 [2]	IC50 [3]	IC50 [4]	IC50 [5]	IC50 [6]	IC50 [7]	IC50 [8]	IC50 [9]	IC50 [10]	pIC50 ([7]; read-out: IC50)	pKi ([7]; read-out: Ki)
COc1ccc([C@@H]2Sc3ccccc3N(CCN(C)C)C(=O)[C@@H]2OC(C)=O)cc1 [DILTIAZEM]	Not Active	Not Active	Not Active	Not Active	Not Active	Not Active	Not Active	Not Active	Not Active	Not Active		
CC(=O)[C@@]1(O)CC[C@H]2[C@@H]3C[C@H](C)C4=CC(=O)C=C[C@]4(C)[C@@]3(F)[C@@H](O)C[C@@]21C [FLUOROMETHOLONE]	Not Active	Not Active	Not Active	Not Active	Not Active	Not Active		Not Active	Not Active	Not Active	6.09	6.97
O=c1[nH]cc(F)c(=O)[nH]1 [FLUOROURACIL]	Not Active	Not Active	Not Active	Not Active	Not Active	Not Active	Not Active	Not Active	Not Active	Not Active		
O=C(O)c1cn(C2CC2)c2cc(N3CCNCC3)c(F)cc2c1=O [CIPROFLOXACIN]	Not Active	Not Active	Not Active	Not Active	Not Active	Not Active	Not Active	Not Active	Not Active	Not Active		
CC(C)(Oc1ccc(CCNC(=O)c2ccc(Cl)cc2)cc1)C(=O)O [BEZAFIBRATE]	Not Active	Not Active	Not Active	Not Active	Not Active	Not Active	Not Active	Not Active	Not Active	Not Active		
CC[C@H](C)[C@H](N)C1=N[C@H](C(=O)N[C@@H](CC(C)C)C(=O)N[C@H](CCC(=O)O)C(=O)N[C@H](C(=O)N[C@H]2CCCCNC(=O)[C@H](CC(N)=O)NC(=O)[C@@H](CC(=O)O)NC(=O)[C@H](Cc3cnc[nH]3)NC(=O)[C@@H](Cc3ccccc3)NC(=O)[C@H]([C@@H](C)CC)NC(=O)[C@@H](CCCN)NC2=O)[C@@H](C)CC)CS1 [BACITRACIN] ({Ileψ(thiazoline)Cys}-L[dE]IK[dOrn]I[dF]H[dD]N; lactam 4-C)	Not Active	Not Active	Not Active	Not Active	Not Active	Not Active	Not Active	Not Active	Not Active	Not Active		
Nc1nc(=O)[nH]cc1F [FLUCYTOSINE]	Not Active	Not Active	Not Active	Not Active	Not Active	Not Active	Not Active	Not Active	Not Active	Not Active		
O=C1OCCN1/N=C/c1ccc([N+](=O)[O-])o1 [FURAZOLIDONE]	Not Active	Not Active	Not Active	Not Active	Not Active	Not Active	Not Active	Not Active	Not Active	Not Active		
CC1(C)S[C@@H]2[C@H](NC(=O)[C@H](NC(=O)N3CCNC3=O)c3ccccc3)C(=O)N2[C@H]1C(=O)O [AZLOCILLIN]	Not Active	Not Active	Not Active	Not Active	Not Active	Not Active	Not Active	Not Active	Not Active	Not Active		
Oc1cccc2cccnc12 [OXYQUINOLINE]	Not Active	Not Active	Not Active	Not Active	Not Active	Not Active	Not Active	Not Active	Not Active	Not Active		
CN1CCC[C@H]1c1cccnc1 [NICOTINE]	Not Active	Not Active	Not Active	Not Active	Not Active	Not Active	Not Active	Not Active	Not Active	Not Active		
NCC[C@H](O)C(=O)N[C@@H]1C[C@H](N)[C@@H](O[C@H]2O[C@H](CN)[C@@H](O)[C@H](O)[C@H]2O)[C@H](O)[C@H]1O[C@H]1O[C@H](CO)[C@@H](O)[C@H](N)[C@H]1O [AMIKACIN]	Not Active	Not Active	Not Active	Not Active	Not Active	Not Active	Not Active	Not Active	Not Active	Not Active		
C/C=C1\[C@H]2C=C(C)C[C@]1(N)c1ccc(=O)[nH]c1C2 [HUPERZINE A]	Not Active	Not Active	Not Active	Not Active	Not Active	Not Active	Not Active	Not Active	Not Active	Not Active		
